From the NIST ThermoML archive (doi:10.1021/acs.jced.8b00975)
Numbers after ± are expanded uncertainties.

Assay: xn = mol fraction of the nth substance listed
Settings: Liquid, Vibrating tube method

C=C(C)C(=O)OCCN(C)C [2-(dimethylamino)ethyl methylpropenoate] + CO
mass density [kg/m3]
Settings	100 kPa	5000 kPa	10000 kPa	15000 kPa	20000 kPa	25000 kPa	30000 kPa	35000 kPa
303.15 K, x1 = 0.0301	–	–	–	–	819.63 ± 0.55	823.45 ± 0.56	827.13 ± 0.57	830.7 ± 0.58
303.15 K, x1 = 0.0604	–	–	–	–	835.85 ± 0.54	839.61 ± 0.55	843.23 ± 0.56	846.75 ± 0.57
303.15 K, x1 = 0.1003	–	–	–	–	852.97 ± 0.54	856.67 ± 0.54	860.27 ± 0.55	863.78 ± 0.56
303.15 K, x1 = 0.1894	–	–	–	–	880.26 ± 0.53	883.85 ± 0.53	887.36 ± 0.54	890.85 ± 0.55
303.15 K, x1 = 0.3009	–	–	–	–	901.34 ± 0.53	904.9 ± 0.53	908.38 ± 0.53	911.78 ± 0.54
303.15 K, x1 = 0.4011	–	–	–	–	913.27 ± 0.53	916.78 ± 0.53	920.23 ± 0.53	923.64 ± 0.53
303.15 K, x1 = 0.4497	–	–	–	–	917.65 ± 0.52	921.14 ± 0.53	924.58 ± 0.53	928.02 ± 0.53
303.15 K, x1 = 0.5004	–	–	–	–	921.33 ± 0.53	924.83 ± 0.53	928.29 ± 0.53	931.73 ± 0.53
303.15 K, x1 = 0.5484	–	–	–	–	924.51 ± 0.53	928 ± 0.53	931.44 ± 0.53	934.88 ± 0.53
303.15 K, x1 = 0.6026	–	–	–	–	927.27 ± 0.53	930.75 ± 0.53	934.2 ± 0.53	937.68 ± 0.54
303.15 K, x1 = 0.701	–	–	–	–	931.36 ± 0.53	934.84 ± 0.54	938.28 ± 0.54	941.72 ± 0.54
303.15 K, x1 = 0.7881	–	–	–	–	934.01 ± 0.54	937.52 ± 0.54	941.01 ± 0.55	944.48 ± 0.55
303.15 K, x1 = 0.897	–	–	–	–	936.24 ± 0.55	939.76 ± 0.55	943.23 ± 0.56	946.67 ± 0.56
303.15 K, x1 = 0.9286	–	–	–	–	937.03 ± 0.55	940.52 ± 0.56	943.99 ± 0.56	947.48 ± 0.56
303.15 K, x1 = 0.961	–	–	–	–	937.54 ± 0.56	941.04 ± 0.56	944.51 ± 0.56	947.99 ± 0.56
313.15 K, x1 = 0.0303	792.52 ± 0.51	797.34 ± 0.52	802.01 ± 0.53	806.47 ± 0.54	810.73 ± 0.55	814.85 ± 0.56	818.84 ± 0.58	822.75 ± 0.59
313.15 K, x1 = 0.0601	808.67 ± 0.51	813.36 ± 0.52	817.9 ± 0.53	822.24 ± 0.54	826.41 ± 0.55	830.42 ± 0.56	834.31 ± 0.57	838.11 ± 0.58
313.15 K, x1 = 0.1002	826.53 ± 0.51	831.11 ± 0.52	835.57 ± 0.52	839.84 ± 0.53	843.93 ± 0.54	847.86 ± 0.55	851.66 ± 0.56	855.32 ± 0.57
313.15 K, x1 = 0.2005	857.05 ± 0.51	861.4 ± 0.52	865.62 ± 0.52	869.66 ± 0.53	873.55 ± 0.53	877.31 ± 0.54	880.98 ± 0.54	884.59 ± 0.55
313.15 K, x1 = 0.3009	876.08 ± 0.51	880.25 ± 0.52	884.34 ± 0.52	888.29 ± 0.52	892.1 ± 0.53	895.78 ± 0.53	899.34 ± 0.54	902.8 ± 0.54
313.15 K, x1 = 0.4008	888.55 ± 0.51	892.6 ± 0.52	896.62 ± 0.52	900.51 ± 0.52	904.28 ± 0.53	907.92 ± 0.53	911.43 ± 0.54	914.81 ± 0.54
313.15 K, x1 = 0.4516	893.1 ± 0.51	897.1 ± 0.52	901.09 ± 0.52	904.98 ± 0.52	908.76 ± 0.53	912.41 ± 0.53	915.91 ± 0.54	919.27 ± 0.54
313.15 K, x1 = 0.49	896.14 ± 0.51	900.12 ± 0.52	904.09 ± 0.52	907.97 ± 0.52	911.73 ± 0.53	915.36 ± 0.53	918.87 ± 0.54	922.22 ± 0.54
313.15 K, x1 = 0.552	900.13 ± 0.51	904.12 ± 0.52	908.1 ± 0.52	911.97 ± 0.53	915.72 ± 0.53	919.34 ± 0.53	922.83 ± 0.54	926.18 ± 0.54
313.15 K, x1 = 0.5881	902.29 ± 0.52	906.26 ± 0.52	910.2 ± 0.52	914.04 ± 0.53	917.76 ± 0.53	921.35 ± 0.53	924.82 ± 0.54	928.16 ± 0.54
313.15 K, x1 = 0.7048	907.14 ± 0.52	911.12 ± 0.52	915.08 ± 0.53	918.92 ± 0.53	922.65 ± 0.54	926.25 ± 0.54	929.72 ± 0.54	933.06 ± 0.55
313.15 K, x1 = 0.8042	910.23 ± 0.53	914.21 ± 0.53	918.18 ± 0.54	922.04 ± 0.54	925.78 ± 0.54	929.4 ± 0.55	932.87 ± 0.55	936.18 ± 0.55
313.15 K, x1 = 0.8998	912.3 ± 0.53	916.37 ± 0.54	920.38 ± 0.54	924.25 ± 0.55	927.99 ± 0.55	931.6 ± 0.56	935.1 ± 0.56	938.49 ± 0.56
313.15 K, x1 = 0.9373	913.06 ± 0.54	917.05 ± 0.54	921 ± 0.55	924.83 ± 0.55	928.56 ± 0.56	932.18 ± 0.56	935.71 ± 0.56	939.17 ± 0.57
313.15 K, x1 = 0.9651	913.5 ± 0.54	917.5 ± 0.54	921.47 ± 0.55	925.34 ± 0.55	929.11 ± 0.56	932.78 ± 0.56	936.35 ± 0.57	939.83 ± 0.57
